Source: article PMC10486604 (Cancers, 2023)
Where two headings read alike, the source gives them in different places.

Legend:
[1] = In vivo pharmacokinetics in 786-O tumor-bearing mice; settings: female, NMRI nu/nu, mouse, iv, 4 mg/kg
Experimental: Plasma and tumor samples were collected and frozen at <−15 °C until sample analysis. Samples were analyzed for concentrations of respective SMDCs and the released payload 1 by LC/MS/MS. […] All pharmacokinetic parameters were calculated by non-compartmental methods.

MA4296 = experiment: Orthotopic TNBC PDX model MA4296; assay type: in vivo, mouse; settings: orthotopic TNBC PDX models, both schedules
Experimental: Two orthotopic TNBC PDX mouse models were performed. Tumor cells were inoculated into the mammary fat pad of mice. Therefore, the mice were anesthetized shortly before surgery. After disinfection of the skin, mice received a small incision in the skin between the 4th and 5th dug. Each mouse was implanted with 2.5 × 10^6 (MA4296) or 5 × 10^6 (MA15191) cells. Treatment started on day 20 after inoculation, when palpable tumor sizes reached 127 mm^3 (day 33 for MA15191). […] Tumors were measured twice weekly with calipers, and their volume was calculated with the following formula: (length × width^2)/2. The body weight was also determined two times weekly. Reasons for termination were tumor size > 1.5 cm^3 or poor general condition. At the end of the study, tissue sampling for IHC and PCR analyses was performed. The statistical analysis was performed using mixed-effect analysis with Tukey’s multiple comparisons test (GraphPad Prism 8.4.2) to calculate significance in tumor growth inhibition between vehicle and treatment groups over time. The Kruskal–Wallis test was used to determine significance at study days 43 and 47. Additionally, the unpaired t-test was performed.

LXFL529 = experiment: PDX model LXFL529 (NSCLC), subcutaneous; assay type: in vivo, mouse; settings: across PDX models
Experimental: Studies were conducted according to all applicable international, national, and local laws and followed the national guidelines for the Care and Use of Laboratory Animals of the Society of Laboratory Animal Science (GV-SOLAS). All animal experiment protocols were approved by the Regional Council Committee on the Ethics of Animal Experiments. Non-small-cell lung (LXFL529) and renal (RXF2667) PDX mouse models comprised six groups each with 10 animals. Tumor fragments (3–4 mm edge length) were transplanted, and tumor growth was monitored until a median size of about 120–150 mm^3 was achieved. […] Both experiments were terminated after a three-week recovery phase on day 63. Animals were monitored at least twice daily on working days and at least once daily on weekends (tumor size and body weight measurement). Colon (CXF2068) and triple-negative breast cancer (TNBC) (MAXF BR120) PDX mouse models were performed as described above with changes in schedule. […] The statistical significance of antitumor efficacy was analyzed by the non-parametric Kruskal–Wallis test, followed by Dunn’s method for multiple comparisons using GraphPad Prism bioanalytic software (version 9.10), with p < 0.05 as significant. Additionally, a nonpaired t-test was performed using GraphPad Prism (version 9.10).

human NE = target: T1, human NE (Homo sapiens, UniProt P08246); experiment: Human NE biochemical cleavage assay; settings: read-out: Km (cleavage to payload 1)
T1 sequence (P08246 30-267): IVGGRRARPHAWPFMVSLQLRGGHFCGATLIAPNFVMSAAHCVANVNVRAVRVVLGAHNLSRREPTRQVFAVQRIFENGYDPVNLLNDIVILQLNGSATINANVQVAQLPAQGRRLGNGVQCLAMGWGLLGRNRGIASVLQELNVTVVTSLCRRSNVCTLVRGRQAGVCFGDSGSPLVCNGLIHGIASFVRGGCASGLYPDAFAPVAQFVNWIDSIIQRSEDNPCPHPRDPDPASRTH
Experimental: Then, 125 μL of pre-heated buffer (100 mM Tris pH 7.5, 150 mM NaCl, 10 mM CaCl2, and 0.05% BSA) was added to each incubation. The reaction was started by adding 0.5 or 1 nM activated mouse elastase (according to manufacturer’s protocol) or human NE to the reaction vials. A negative control without elastase was run under the same conditions. The reaction was stopped at 0, 4.5, 8, and 12 min by the addition of acidified acetonitrile/0.2% formic acid. Camptothecin was used as internal standard for the LC/MS/MS analysis.

NCI-H292 = experiment: In vitro proliferation (MTT) assay in presence and absence of NE, NCI-H292; assay type: cell-based; settings: Homo sapiens, 72 h
Experimental: (§1) The in vitro cytotoxicity was evaluated in cancer cell lines NCI-H292 and LoVo after a 72-h continuous exposure to the presence or absence of 20 nM NE using MTT assays (ATCC, Manassas, VA, USA). IC50 values were determined as the concentration of compound required for 50% inhibition of cell viability.

[2] = payload 1 dosed directly 1 mg/kg IV, 786-O tumor-bearing mice, cited from earlier work
LoVo = experiment: In vitro proliferation (MTT) assay in presence and absence of NE, LoVo; assay type: cell-based; settings: Homo sapiens, 72 h
Experimental: as §1

## CCCNC(=O)Nc1cccc(S(=O)(=O)Nc2cccc([C@H](CC(=O)O)NC(=O)Nc3ccc(NC(=O)NCCOCCOCCOCCC(=O)N[C@@H](CC(=O)O)C(=O)N4CCC[C@H]4C(=O)N[C@H](C(=O)O[C@]4(CC)C(=O)OCc5c4cc4n(c5=O)Cc5c-4nc4ccccc4c5CC)C(C)C)cc3)c2)c1 [8e2]
[1]
  half-life: 1.3 h

## CCCNC(=O)Nc1cccc(S(=O)(=O)Nc2cccc([C@@H](CC(=O)O)NC(=O)Nc3ccc(NC(=O)NCCOCCOCCOCCC(=O)N[C@@H](CC(=O)O)C(=O)N4CCC[C@H]4C(=O)N[C@H](C(=O)O[C@]4(CC)C(=O)OCc5c4cc4n(c5=O)Cc5c-4nc4ccccc4c5CC)C(C)C)cc3)c2)c1 [VIP236]
MA4296
  Tolerability: well tolerated
LXFL529
  Tolerability (weight loss): well tolerated
Human NE; enzyme concentration 0.5 nmol
  Km: 9.4 µM
Human NE; enzyme concentration 1.0 nmol
  Km: 9.6 µM
[1]
  half-life: 0.807 h

## CCc1c2c(nc3ccccc13)-c1cc3c(c(=O)n1C2)COC(=O)[C@]3(O)CC [compound 1, 7-ethyl camptothecin]
NCI-H292; absence of hNE, read-out: NCI H292 IC50
  IC50: 1.54 nM
NCI-H292; presence of 20 nM hNE, read-out: NCI H292 + hNE IC50
  IC50: 1.35 nM
[2]
  AUCplasma of payload 1 (VIP126): 301 ng·h/mL
  AUCtumor of payload 1 (VIP126): 185 ng·h/mL
  AUCtumor/AUCplasma of payload 1 (VIP126): 0.61
[2]; listed as Payload 1 (VIP126)
  AUCtumor/AUCplasma of payload 1 (VIP126): 0.616
LoVo; absence of hNE, read-out: LoVo IC50
  IC50: 1.9 nM
LoVo; presence of 20 nM hNE, read-out: LoVo + hNE IC50
  IC50: 1.85 nM
